# “Also recorded” adds a separate entry of the source.
# Tested on: cloned T cells (68A62)
# Experiment: Ca2+ mobilization pattern in individual T cells of a T-cell monolayer (Fluo-4 fluorescence microscopy)
# Type: cell-based, human
# Details: for fraction of T cells with slower Ca2+ mobilization (pattern of inefficient T cells) / fraction of cells with rapid/strong and sustained pattern of Ca2+ flux: CTL clone 68A62, strong agonist peptide 10^-4 M IV9, FIG. 4
# Excerpt: HIV- and Flu-specific human CD8+ T cell clones, termed 68A62 and CER43, were kindly provide by Bruce Walker and Antonio Lanzavecchia, correspondingly. These T cells recognize […] (IV9) and […] (GL9) peptides, respectively, both presented by HLA-A2 MHC class I. 115iX is a CD8+ T cell line developed from CTL D3 as a result of spontaneous mutation in its TCR β chain resulting in loss of specificity for its natural ligand (Anikeeva and Sykulev, unpublished). These were used as T cells with irrelevant specificity. After stimulation with a mixture of allogeneic PBMC and IL2 the cells are typically used in resting stage, 12-17 days after the stimulation as previously described.
# 10^6 cells in 1 ml of PBS were loaded with Fluo-4 (Life Technologies) at 2-4 μM for 30 min at 37° C. in the presence of 0.02% pluoronic acid F-127 and 4 mM Probenecid. The cells were washed free of unreacted reagents and incubated at 37° C. for additional 30 min. The cells were then re-suspended in the assay buffer (Dulbecco's PBS containing 1 mM CaCl2, 2 mM MgCl2, 5 mM glucose, and 0.025% BSA) and used for Ca2+ flux analysis.
# Glass bottom of 96 well MatTec plates was covered with poly-L-Lysine (Sigma, mol wt>300,000) at 0.1 mg/ml for 1 hr at room temperature. After washing with DPBS and add water, TS2/4 non-blocking mAb specific for LFA-1 were added to the plate at concentration 10 μg/ml overnight & 4° C. The wells were washed with DPBS, and 3×10^5 Fluo-4-labeled T cells in 100 μl of the assay buffer were added to each well. The plates were centrifuged for 200 g for one minute and were incubated for 30 min at room temperature prior to the imaging. Suspended cells were removed by gentle washing with assay buffer. The quality of T cell monolayer was assessed using bright field microscopy.
# To identify responding T cells we imaged T-cell monolayers before (background measurement) and after (response) addition of the stimulatory signal such as agonist peptide. The images of T-cell monolayers were taken at various exposure times using 10× or 20× objectives. Instead of averaging the entire set of stimulatory signal against an agonist peptide, we identified sets of cells, having different response rates and then averaged these, now separated sets of cells. This is in direct contrast to the general averaging strategy provided in PCT/US2016/039313. In some experiments Ca2+ response was also initiated by ionomycin at 10 μg/ml to optimize exposure time (data not shown). The average intensity of images prior and after the T-cell stimulation at various time points and the numbers of individual responding cells per imaging field were determined by MetaMorph software.
# Glass bottom of 96-well plates was covered with poly-L-Lysine to capture TS2/4 antibody recognizing LFA-1 adhesion receptor without blocking LFA-1 functional activity. Cloned CD8 T cells with known specificity or polyclonal CD8 T cells were labeled with Ca2+ fluorophore Fluor-4 and added to the wells. The quality of the T-cell monolayers was evident from analysis of bright field images of the immobilized T cells on the glass bottom of the plate. This method allows T cells to form a continuous monolayer allowing the T cells to contact each other, which is necessary for presentation and recognition of pMHC on one T cell by another T cell.
# The immobilized cells, after they are provided with stimulation of a peptide, can be imaged. Accordingly, we can take a first image, to identify the background image of each individual cell, before and after the stimulation. Accordingly, we can look at the calcium concentration of each individual cell across time. By looking at each cell, we can then determine and add them to one of three boxes for responding cells, and then a fourth type of cell that is either non-responsive or there is calcium flux that happens with or without stimulation-this typically results in a sharp peak of intensity that quickly diminishes.
# [1] = listed as strong agonist ligand
sequence,measurement,setting,value
"ILKEPVHGV [IV9, peptide from HIV reverse transcriptase, presented by HLA-A2, recognized by CTL clone 68A62]",pattern of Ca2+ response of majority of T cells,"CD8 CTL 68A62, 10^-4 M IV9 peptide, FIG. 4",rapid and sustaine
same,fraction of T cells with slower Ca2+ mobilization (pattern of inefficient T cells),,20%
same,fraction of cells with rapid/strong and sustained pattern of Ca2+ flux,,about 90%
same,fraction of T cells with slower Ca2+ mobilization (pattern of inefficient T cells),[1],less than 20%
same,fraction of cells with rapid/strong and sustained pattern of Ca2+ flux,[1],More than 80%
same,pattern of Ca2+ response of majority of T cells,"CTL clone 68A62, suboptimal (much lower) concentration of the strong agonist peptide, FIG. 6","rapid and oscillating pattern of Ca2+ mobilization; also recorded: quick, but oscillating"
same,pattern of Ca2+ response of majority of T cells,"CTL clone 68A62, suboptimal (much lower) concentration of the strong agonist peptide, FIG. 6, listed as strong agonist pMHC ligand",slow oscillating kinetics of Ca2+ mobilization

# Reference: patent US20250231189A1, “MEASURING FREQUENCY OF PATHOGEN-SPECIFIC T CELLS IN […] AS E[…] TCR-INDUCED CA(2+) SIGNALING” (Thomas Jefferson University, priority 2017, published 2025)
